Values quoted from earlier work in article PMC9873307, “Methylone, a rapid acting entactogen with robust anxiolytic and antidepressant-like activity” (Frontiers in Psychiatry, 2023).

How the values were obtained:
healthy volunteers = conditions: cited from earlier work
PTSD patients = test system: PTSD patients; design: method as in earlier work; conditions: retrospective clinical case series; cited from earlier work
mice = test system: mice; design: method as in PMID 23603357; conditions: 3–4 doses of 25 mg/kg over a 2-day period, 3 days after dosing; cited from earlier work
[1] = test system: vesicular monoamine transporter 2 (VMAT2); design: method as in PMID 10528135; conditions: compared with MDMA; cited from earlier work
brain serotonin = conditions: repeated doses; cited from earlier work
rodents = test system: rodents; design: method as in PMID 23839026, PMID 28882561, PMID 22509960, PMID 22922498; conditions: cited from earlier work
[2] = binge-dosing regimen; cited from earlier work
[3] = test system: other 5-HT, NE, or DA receptors; design: method as in PMID 31063768; conditions: cited from earlier work

CNC(C)C(=O)c1ccc2c(c1)OCO2 (stereo not shown) [methylone, 3,4-methylenedioxy-N-methylcathinone]
tolerability in two Phase 1 studies (healthy volunteers; healthy volunteers): well-tolerated | tolerability in phase 1 clinical study (healthy volunteers; human doses approximately 100–150 mg): well tolerated, with no severe adverse events reported | tolerability in clinical studies (healthy volunteers; human): well tolerated | effect on symptoms of PTSD (PTSD patients): alleviates symptoms of PTSD | immobility in the FST (mice): increased immobility | lower potency at VMAT2 than MDMA [1]: > 10 fold | depletion of brain serotonin (brain serotonin): do not deplete brain serotonin | locomotor activity (rodents): increase locomotor activity | effect on anxiety [2]: anxiogenic effects | affinity for other 5-HT, NE, or DA receptors [3]: weak, if any, affinity
